Measurements: patent publication US20080107619A1, “Carbohydrate based cellulase inhibitors as feeding stimulants in termites” (University of Florida Research Foundation, Inc., priority 2006, published 2008)

Experiments:
β-glucosidase = assay: Post-feeding inhibition of β-glucosidase activity in whole-body homogenates; assay type: in vivo, R. flavipes; details: after 24 days feeding at 25 mM and above
Protocol: (§1) Whole body homogenates were used for optimization and post-feeding inhibition studies. Here, 10-15 termite workers were homogenized in 1 to 1.5 ml ice-cold homogenization buffer with a Teflon-glass (Potter-Elvehjem) homogenizer powered by a motorized electric stirrer (Fisher Scientific). After homogenization, both gut region and whole-body preparations were centrifuged at 15,000× g and 4° C. for 15 min. The resulting supernatants from the different gut regions were used directly for subsequent enzyme assays. Supernatants from whole-body homogenates were passed through glass wool to remove excess lipids before proceeding with cellulase activity assays.
(§2) Cellulase activity assays were adapted from Han et al. in “Characterization of a bifunctional cellulase and its structural gene,” J. Biol. Chem. 270 (1995) 26012-26019, with optimization for a 96-well microplate format. […] Color was allowed to develop on ice for 15 min before measuring absorbance at 540 nm relative to a glucose standard curve.
(§3) The hydrolysis product of both the pNPC and pNPG substrates is p-nitrophenol, which is yellow in color and permits for direct quantification of activity in a kinetic assay. pNPC and pNPG assays were initially incubated at 32° C. for 20 min before measuring the release of the product, p-nitrophenol, at 420 nm. […]

endoglucanase = assay: Post-feeding inhibition of endoglucanase activity in whole-body homogenates; assay type: in vivo, R. flavipes; details: after 24 days feeding, various concentrations; FIGS. 11A-11C
Protocol: as §1
Cellulase activity assays were adapted from Han et al. in “Characterization of a bifunctional cellulase and its structural gene,” J. Biol. Chem. 270 (1995) 26012-26019, with optimization for a 96-well microplate format. The model substrates used to test for endoglucanase, exoglucanase and β-glucosidase activities were CMC (FIG. 1A), pNPC (FIG. 1B) and pNPG (FIG. 1C), respectively. The substrate concentration used for CMC was 0.5% (w/v), while pNPG and pNPC were used at 4 mM. All substrates were diluted in homogenization buffer. […] Color was allowed to develop on ice for 15 min before measuring absorbance at 540 nm relative to a glucose standard curve. […]

exoglucanase = assay: Post-feeding inhibition of exoglucanase activity in whole-body homogenates; assay type: in vivo, R. flavipes; details: after 24 days feeding at 5 mM and above
Protocol: as §1, §2, §3

[1] = molecular target: T1, Cel7A cellobiohydrolase (exoglucanase) (Trichoderma reesei, UniProt P62694); details: non-competitive inhibition; Vonhoff et al.; read-out: I50; cited from earlier work
T1 sequence (P62694 18-513): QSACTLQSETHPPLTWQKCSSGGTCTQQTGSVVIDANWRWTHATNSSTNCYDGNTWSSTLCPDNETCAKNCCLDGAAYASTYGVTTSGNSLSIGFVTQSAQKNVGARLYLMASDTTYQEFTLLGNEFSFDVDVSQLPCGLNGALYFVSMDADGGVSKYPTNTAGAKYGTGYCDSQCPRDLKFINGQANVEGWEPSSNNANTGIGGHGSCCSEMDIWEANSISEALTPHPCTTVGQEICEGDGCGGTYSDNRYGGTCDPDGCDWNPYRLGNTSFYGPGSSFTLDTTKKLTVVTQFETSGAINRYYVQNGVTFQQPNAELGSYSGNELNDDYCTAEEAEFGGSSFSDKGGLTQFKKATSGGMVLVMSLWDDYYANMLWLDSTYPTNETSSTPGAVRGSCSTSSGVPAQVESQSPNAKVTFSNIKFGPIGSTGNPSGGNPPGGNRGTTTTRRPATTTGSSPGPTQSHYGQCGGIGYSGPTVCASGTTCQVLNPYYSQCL

OC[C@@H]1[C@@H](O[C@@H]2O[C@H](CO)[C@@H](O)[C@H](O)[C@H]2O)[C@H](O)[C@@H](O)c2nccn21 [CBI, cellobioimidazole]
β-glucosidase activity, maximal reduction relative to controls (β-glucosidase): ~90%
endoglucanase activity after feeding, reduction relative to controls (endoglucanase): significant
Exoglucanase activity, maximal reduction relative to controls (exoglucanase): ~75%
IC50 [1]: 130 µM
